Publication PMC8765781, “A platform of assays for the discovery of anti-Zika small-molecules with activity in a 3D-bioprinted outer-blood-retina model” (PLoS ONE, 2022)
Read-outs that look alike come from different tables or passages of the source.

Legend:
[1] = tested on: caspase-3 activity induced by ZIKV in Vero cells; test: cells; type: cell-based; conditions: Zika virus, read-out: Caspase 3 (ZIKV Antiviral Assays), IC50
[2] = tested on: wild-type ZIKV (Ugandan MR766 strain) in Vero cells; test: ZIKV cytopathic effect (CPE) inhibition qHTS assay, CellTiter-Glo readout; type: cell-based, Zika virus; conditions: for AC50 / IC50: Zika virus; for IC50: read-out: ZIKV-infection (CPE, ZIKV Antiviral Assays), IC50
[3] = tested on: ZIKV-mCherry (Cambodian strain FSS13025); test: microbe, parasite or virus in culture; type: cell-based, Zika virus; conditions: for AC50: Zika virus, Vero
[4] = tested on: ZIKV-RLuc (Cambodian strain FSS13025); test: microbe, parasite or virus in culture; type: cell-based, Zika virus; conditions: Zika virus, Vero, 48 h, read-out: Rluc-ZIKV (ZIKV Antiviral Assays), IC50
in vitro = conditions: African green monkey
[5] = ZIKV-infected Vero cells, 48 hr, unit inferred
[6] = Vero, from Hill fit of the response curve, 50% of maximum activity response, 194 cherry-picked compounds, protocol name not given, read-out: AC50
[7] = Vero, potency in log units (Molar) from Hill fit of the response curve, 194 cherry-picked compounds, protocol name not given, read-out: Log AC50 (converted)
[8] = Vero cells, wild-type ZIKV MOI 1, 48 hr, unit inferred
[9] = curve class v2 (Inglese et al. 2006)
[10] = difference between neutral response and maximum compound response
[11] = read-out: Log AC50 (M) (converted)
[12] = Vero, read-out: Log AC50 (M) (converted)

| Compound | IC50 [1, 5] [µM] | AC50 [2, 6] [M] | AC50 [2, 7] [M] | IC50 [2, 8] [µM] | Efficacy [2, 10] | CC-v2 (curve class of the dose response curve) [3] | Efficacy (difference between neutral response and maximum compound response) [3] | Max Resp (difference between neutral response and response at highest compound concentration) [3] | AC50 [3] [M] | AC50 [3, 11] [M] | IC50 [4] [µM] | CC50 at 48 h (in vitro) [µM] | CC50 (in vitro) [µM] | IC50 ([1]; Vero, 48 h) [µM] | Efficacy [2] | AC50 ([2]; Vero) [M] | IC50 ([2]; Vero, 48 h) [µM] | AC50 [2, 12] [M] | also measured |
| --- | --- | --- | --- | --- | --- | --- | --- | --- | --- | --- | --- | --- | --- | --- | --- | --- | --- | --- | --- |
| C[C@H]1CC[C@@]2(OC1)O[C@H]1CC3[C@@H]4CC[C@@H]5C[C@@H](O[C@@H]6O[C@H](CO)[C@@H](O[C@@H]7O[C@@H](C)[C@H](O)[C@@H](O)[C@H]7O)[C@H](O)[C@H]6O[C@@H]6O[C@H](CO)[C@@H](O)[C@H](O)[C@H]6O)CC[C@]5(C)C4CC[C@]3(C)[C@H]1[C@@H]2C (stereo partly shown) [NCGC00347372-02, Asparanin B] | 6.98 | 1.1e-05 | 1.1e-05 | 11 | -63.699 | -1.2 | -51.182 | -100.305 | 1.27e-06 | 1.27e-06 | 6.19 | > 50 | – | – | – | – | – | – | CC-v2 (curve class classification of the dose response curve) [2, 9]: -2.2 |
| CC1(C)CC2C3=CCC4[C@@]5(C)CC[C@H](OC6OCC(O)C(OC7OC(CO)C(O)C(O)C7O)C6O)C(C)(C)C5CC[C@@]4(C)[C@]3(C)C[C@H](O)[C@@]2(CO)[C@H](OC(=O)c2ccccc2)C1 (stereo partly shown) [NCGC00347604-02] | > 48 | 7.78e-06 | 7.78e-06 | 7.78 | -34.889 | -1.4 | -68.489 | -100.29 | – | – | 5.52 | – | > 50 | – | – | – | – | – | CC-v2 (curve class classification of the dose response curve) [2, 9]: -3 |
| CC1(C)CC[C@]2(C(=O)O)CC[C@]3(C)C(=CCC4[C@@]5(C)CCC(O[C@@H]6OC[C@H](O)[C@H](O)[C@H]6O[C@@H]6O[C@H](CO)[C@@H](O)[C@H](O)[C@H]6O)[C@@](C)(CO)C5CC[C@]43C)[C@@H]2C1 (stereo partly shown) [NCGC00347737-02] | – | – | – | – | – | – | – | – | – | – | 12.3 | – | – | 0.02 | -61.863 | 2.43e-07 | 0.24 | 2.43e-07 | CC50 at 48 h (in vitro; Vero cells): > 50 µM |
| C/C=C(\C)C(=O)O[C@H]1[C@H](OC(C)=O)[C@]2(CO)[C@H](O)[C@H](O)[C@]3(C)C(=CCC4[C@@]5(C)CC[C@H](O[C@@H]6O[C@H](C(=O)O)[C@@H](O)[C@H](O[C@@H]7OC[C@H](O)[C@H](O[C@@H]8OC[C@H](O)[C@H](O)[C@H]8O)[C@H]7O)[C@H]6O[C@@H]6O[C@H](CO)[C@@H](O)[C@H](O)[C@H]6O)C(C)(C)C5CC[C@]43C)[C@@H]2CC1(C)C (stereo partly shown) [NCGC00381072-01] | – | – | – | – | – | -2.2 | -56.385 | -100.02 | 5.66e-06 | 5.66e-06 | 4.45 | – | > 50 | 2.52 | -30.676 | 8.71e-06 | 8.71 | 8.71e-06 | – |
| CC1=CC[C@]2(C(=O)O[C@@H]3O[C@H](CO[C@@H]4O[C@H](CO)[C@@H](O[C@@H]5O[C@@H](C)[C@H](O)[C@@H](O)[C@H]5O)[C@H](O)[C@H]4O)[C@@H](O)[C@H](O)[C@H]3O)CC[C@]3(C)C(CCC4[C@@]5(C)C[C@@H](O)[C@H](O)[C@@](C)(CO)C5CC[C@]43C)C2C1C (stereo partly shown) [NCGC00381125-01] | – | – | – | – | – | -1.4 | -51.276 | -44.108 | – | – | 0.003 | > 50 | – | 0.01 | -73.731 | 6.18e-06 | 6.18 | 6.18e-06 | CC-v2 (curve class classification of the dose response curve) [2]: -3 |
| CC(=O)OCC1OC(OC2COC(OC3COC(OC4C(OC5C(CO)OC(OC6CCC7(C)C(CCC8(C)C7CC=C7C9CC(C)(C)CCC9(C(=O)OC9OC(CO)C(O)C(O)C9OC9OCC(OC%10OCC(O)(CO)C%10O)C(O)C9O)C(O)CC78C)C6(C)C)C(O)C5O)OCC(O)C4O)C(O)C3O)C(O)C2O)C(OC(=O)/C=C/c2ccccc2)C(O)C1OC(C)=O (stereo not shown) [NCGC00381294-01] | 0.2 | 5.62e-06 | 5.62e-06 | 5.62 | -55.683 | -1.3 | -53.243 | -100.305 | 1.16e-06 | 1.16e-06 | 1.6 | – | > 50 | – | – | – | – | – | CC-v2 (curve class classification of the dose response curve) [2, 9]: -2.2 |
| CC(=O)O[C@@H]1C[C@]2(C)[C@@]3(CCC4[C@@]5(C)CC[C@H](O[C@@H]6O[C@H](C(=O)O)[C@@H](O)[C@H](OC7OC(CO)C(O)C(O)[C@H]7O[C@@H]7O[C@@H](C)[C@H](O)[C@@H](O)[C@H]7O[C@@H]7OC[C@](O)(CO)[C@H]7O)[C@H]6OC6OC(CO)C(O)C(O)C6O)C(C)(C)C5CC[C@]42C)OC[C@@]12CCC(C)(C)CC23 (stereo partly shown) [NCGC00381303-01] | – | – | – | – | – | -1.2 | -57.722 | -99.519 | 3.18e-06 | 3.18e-06 | 1.77 | – | – | 4.48 | -19.952 | 2.75e-06 | 2.75 | 2.75e-06 | CC50 at 48 h (in vitro; Vero cells): > 50 µM |
| C[C@@H]1O[C@@H](O[C@H]2[C@H](O[C@H]3[C@H](O)[C@@H](C(=O)O)O[C@@H](O[C@H]4CC[C@@]5(C)C(CC[C@]6(C)C5CC[C@]57OC[C@@]8(CCC(C)(C)CC85)[C@H](O)C[C@]76C)C4(C)C)[C@@H]3O[C@@H]3O[C@H](CO)[C@@H](O[C@@H]4OC[C@@H](O)[C@H](O)[C@H]4O)[C@H](O)[C@H]3O)O[C@H](CO)[C@H](O)[C@@H]2O)[C@H](O)[C@H](O)[C@H]1O (stereo partly shown) [NCGC00384492-01] | – | – | – | – | – | -1.4 | -52.527 | -99.118 | – | – | 5.61 | – | – | 5.64 | -27.701 | 1.1e-05 | 11 | 1.1e-05 | CC50 at 48 h (in vitro; Vero cells): > 50 µM |
| C=C(C)C(=O)O[C@H]1CC2=CC(C/C(C)=C/[C@H]3OC(=O)C(=C)[C@H]13)OC2=O (stereo partly shown) [NCGC00384526-01] | – | – | – | – | – | 4 | 0 | -97.701 | – | – | 10.2 | – | > 50 | 6.46 | -93.113 | 1.43e-05 | 14.3 | 1.43e-05 | CC-v2 (curve class classification of the dose response curve) [2]: -1.1 |
| C=C1CC[C@@]2(OC1)O[C@H]1CC3C4CC=C5C[C@@H](O[C@@H]6O[C@@H](C)[C@H](O)[C@@H](O)[C@H]6O)C[C@@H](O[C@@H]6O[C@H](C)[C@H](O)[C@H](O)[C@H]6O[C@@H]6O[C@@H](C)[C@H](O)[C@@H](O)[C@H]6O)[C@]5(C)C4CC[C@]3(C)[C@H]1[C@@H]2C (stereo partly shown) [NCGC00384710-01] | 1.24 | 1.23e-05 | 1.23e-05 | 12.3 | -26.266 | -1.2 | -59.162 | -100.305 | 7.14e-07 | 7.14e-07 | 6.95 | > 50 | – | – | – | – | – | – | – |
| C=C(C)C(C)C1OC23CC4(CO2)C(CCC2C5(C)CCC(OC6OCC(O)C(OC7OC(CO)C(O)C(OC8OCC(O)C(O)C8O)C7O)C6OC6OC(CO)C(O)C6O)C(C)(C)C5CCC24C)C3C(C)(O)C1OC(C)=O (stereo not shown) [NCGC00384732-01] | 0.16 | 1.38e-05 | 1.38e-05 | 13.8 | -32.277 | -1.4 | -78.707 | -96.911 | – | – | 6.95 | > 50 | – | – | – | – | – | – | – |
| C[C@@H]1O[C@@H](O[C@H]2[C@H](OC(=O)[C@]34CCC(C)(C)C[C@H]3C3=CCC5[C@@]6(C)C[C@H](O)[C@H](O[C@@H]7O[C@H](C(=O)O)[C@@H](O)[C@H](O)[C@H]7O)[C@@](C)(CO)C6[C@H](O)C[C@@]5(C)[C@]3(C)CC4)OC[C@H](O)[C@@H]2O)[C@H](O)[C@H](O)[C@H]1O[C@@H]1OC[C@@H](O)[C@H](O[C@@H]2O[C@@H](C)[CH][C@@H](O)[C@H]2O)[C@H]1O (stereo partly shown) [NCGC00384879-01] | – | – | – | – | – | -1.2 | -58.138 | -66.904 | 6.35e-10 | 6.35e-10 | 0.13 | – | > 50 | 5.64 | -56.214 | 4.36e-06 | 4.36 | 4.36e-06 | CC-v2 (curve class classification of the dose response curve) [2]: -3 |
| C/C=C(/C)C(=O)O[C@H]1[C@@H]2[C@H](C)C(=O)O[C@@H]2C[C@@H](C)[C@@H]2C=CC(=O)[C@]21C [NCGC00385048-01] | – | – | – | – | – | – | – | – | – | – | 18.1 | > 50 | – | 0.65 | -20.801 | – | – | – | – |
